Source: patent US4684664A, “Derivatives of β-(4-isocyano-1,2,3,4-diepoxycyclopentyl) acrylic acid” (Kureha Kagaku Kogyo Kabushiki Kaisha, priority 1984, dated 1987)
In brackets after ≈: the same amount, converted by molar mass.

Experiments:
Format in all cases: cell-based
Proteus vulgaris OX-19 = experiment: Antibacterial activity, agar-dilution MIC, organism No. 20; details: Proteus vulgaris, OX19; Organism No. 20, bouillon-agar; read-out: Minimum Inhibitory Concentration
Summary of the method: (§1)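 Testing uses agar dilution in bouillon agar. MIC = lowest inhibiting concentration, μg/ml medium.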

[1] = system: Candida albicans IAM 4905; experiment: Antifungal activity, agar-dilution MIC, organism No. 29; details: Candida albicans, IAM4905; Organism No. 29, bouillon-agar; read-out: Minimum Inhibitory Concentration
Summary of the method: as §1

[2] = system: Proteus rettgeri IFO 3850; experiment: Antibacterial activity, agar-dilution MIC, organism No. 22; details: Providencia rettgeri, IFO3850; Organism No. 22, bouillon-agar; read-out: Minimum Inhibitory Concentration
Summary of the method: as §1

[3] = system: Pseudomonas aeruginosa PAO 1; experiment: Antibacterial activity, agar-dilution MIC, organism No. 17; details: Pseudomonas aeruginosa, PAO1; Organism No. 17, bouillon-agar; read-out: Minimum Inhibitory Concentration
Summary of the method: as §1

[4] = system: Salmonella shottmuelleri 8006; experiment: Antibacterial activity, agar-dilution MIC, organism No. 11; details: Salmonella, 8006; Organism No. 11, bouillon-agar; read-out: Minimum Inhibitory Concentration
Summary of the method: as §1

[5] = system: Salmonella typhimurium IID 971; experiment: Antibacterial activity, agar-dilution MIC, organism No. 8; details: Salmonella enterica; Organism No. 8, bouillon-agar; read-out: Minimum Inhibitory Concentration
Summary of the method: as §1

[6] = system: Streptococcus pyogenes IFO 3340; experiment: Antibacterial activity, agar-dilution MIC, organism No. 26; details: Streptococcus pyogenes, IFO3340; Organism No. 26, bouillon-agar; read-out: Minimum Inhibitory Concentration
Summary of the method: as §1

[7] = system: Klebsiella pneumoniae PCI-602; experiment: Antibacterial activity, agar-dilution MIC, organism No. 7; details: Klebsiella pneumoniae, PCI602; Organism No. 7, bouillon-agar; read-out: Minimum Inhibitory Concentration
Summary of the method: as §1

Proteus vulgaris HX-19 = experiment: Antibacterial activity, agar-dilution MIC, organism No. 21; details: Proteus vulgaris, HX19; Organism No. 21, bouillon-agar; read-out: Minimum Inhibitory Concentration
Summary of the method: as §1

[8] = system: Streptococcus pyogenes Cook; experiment: Antibacterial activity, agar-dilution MIC, organism No. 4; details: Streptococcus pyogenes; Organism No. 4, bouillon-agar; read-out: Minimum Inhibitory Concentration
Summary of the method: as §1

[9] = system: Staphylococcus aureus Terajima; experiment: Antibacterial activity, agar-dilution MIC, organism No. 2; details: Staphylococcus aureus; Organism No. 2, bouillon-agar; read-out: Minimum Inhibitory Concentration
Summary of the method: as §1

[10] = system: Salmonella enteritidis G 14; experiment: Antibacterial activity, agar-dilution MIC, organism No. 12; details: Salmonella enterica, ENTERITIDIS; Organism No. 12, bouillon-agar; read-out: Minimum Inhibitory Concentration
Summary of the method: as §1

[11] = system: Salmonella paratyphi-A 1015; experiment: Antibacterial activity, agar-dilution MIC, organism No. 10; details: Salmonella enterica, PARATYPHI, read-out: Minimum Inhibitory Concentration
Summary of the method: as §1

[12] = system: Bacillus subtilis ATCC 6633; experiment: Antibacterial activity, agar-dilution MIC, organism No. 14; details: Bacillus subtilis, ATCC6633; Organism No. 14, bouillon-agar; read-out: Minimum Inhibitory Concentration
Summary of the method: as §1

[13] = system: Proteus mirabilis IFO 3849; experiment: Antibacterial activity, agar-dilution MIC, organism No. 19; details: Proteus mirabilis, IFO3849; Organism No. 19, bouillon-agar; read-out: Minimum Inhibitory Concentration
Summary of the method: as §1

[14] = system: Staphylococcus aureus MS 353; experiment: Antibacterial activity, agar-dilution MIC, organism No. 3; details: Staphylococcus aureus, MS353; Organism No. 3, bouillon-agar; read-out: Minimum Inhibitory Concentration
Summary of the method: as §1

[15] = system: Streptococcus faecium IFO 3826; experiment: Antibacterial activity, agar-dilution MIC, organism No. 27; details: Enterococcus faecium, IFO3826; Organism No. 27, bouillon-agar; read-out: Minimum Inhibitory Concentration
Summary of the method: as §1

[16] = system: Pseudomonas aeruginosa NCTC 10490; experiment: Antibacterial activity, agar-dilution MIC, organism No. 16; details: Pseudomonas aeruginosa, NCTC10490; Organism No. 16, bouillon-agar; read-out: Minimum Inhibitory Concentration
Summary of the method: as §1

Salmonella typhi 901 = experiment: Antibacterial activity, agar-dilution MIC, organism No. 9; details: Salmonella enterica, TYPHI, read-out: Minimum Inhibitory Concentration
Summary of the method: as §1

[17] = system: Micrococcus luteus ATCC 9341; experiment: Antibacterial activity, agar-dilution MIC, organism No. 25; details: Micrococcus luteus, ATCC9341; Organism No. 25, bouillon-agar; read-out: Minimum Inhibitory Concentration
Summary of the method: as §1

[18] = system: Mycoplasma pneumoniae IID817; experiment: Antimycoplasmal activity, MIC by phenol red colour change, organism No. 28; details: Mycoplasma, IID817; Organism No. 28, PPLO broth + 1% glucose, 37° C.; read-out: Minimum Inhibitory Concentration (MIC)
Method: Mycoplasma pneumoniae IID817 was used as the test microorganism in a culture medium prepared by adding 1% of glucose to "PPLO broth (manufactured by Difco Co.) liquid culture medium" at 37° C. with phenol red as an indicator, thereby culturing the test microorganism.

[19] = system: Proteus morganii IFO 3848; experiment: Antibacterial activity, agar-dilution MIC, organism No. 18; details: Morganella morganii, IFO3848; Organism No. 18, bouillon-agar; read-out: Minimum Inhibitory Concentration
Summary of the method: as §1

[20] = system: Escherichia coli NIHJ-JC-2; experiment: Antibacterial activity, agar-dilution MIC, organism No. 5; details: Escherichia coli, NIHJJC2; Organism No. 5, bouillon-agar; read-out: Minimum Inhibitory Concentration
Summary of the method: as §1

[21] = system: Escherichia coli K12 C600 IAM 1264; experiment: Antibacterial activity, agar-dilution MIC, organism No. 6; details: Escherichia coli, IAM1264; Organism No. 6, bouillon-agar; read-out: Minimum Inhibitory Concentration
Summary of the method: as §1

Enterobacter cloacae 963 = experiment: Antibacterial activity, agar-dilution MIC, organism No. 24; details: Enterobacter cloacae, 963; Organism No. 24, bouillon-agar; read-out: Minimum Inhibitory Concentration
Summary of the method: as §1

[22] = system: Serratia marcescens IAM 1184; experiment: Antibacterial activity, agar-dilution MIC, organism No. 13; details: Serratia marcescens, IAM1184; Organism No. 13, bouillon-agar; read-out: Minimum Inhibitory Concentration
Summary of the method: as §1

[23] = system: Staphylococcus aureus FDA 209PJc-1; experiment: Antibacterial activity, agar-dilution MIC, organism No. 1; details: Staphylococcus aureus, FDA209PJC1; Organism No. 1, bouillon-agar; read-out: Minimum Inhibitory Concentration
Summary of the method: as §1

[24] = system: Enterobacter aerogenes ATCC 13048; experiment: Antibacterial activity, agar-dilution MIC, organism No. 23; details: Klebsiella aerogenes, ATCC13048; Organism No. 23, bouillon-agar; read-out: Minimum Inhibitory Concentration
Summary of the method: as §1

[25] = system: Aspergillus niger IFO 6342; experiment: Antifungal activity, agar-dilution MIC, organism No. 30; details: Aspergillus niger, IFO6342; Organism No. 30, bouillon-agar; read-out: Minimum Inhibitory Concentration
Summary of the method: as §1

[26] = system: Pseudomonas aeruginosa IFO 3445; experiment: Antibacterial activity, agar-dilution MIC, organism No. 15; details: Pseudomonas aeruginosa, IFO3445; Organism No. 15, bouillon-agar; read-out: Minimum Inhibitory Concentration
Summary of the method: as §1

## [C-]#[N+]C12CC3(/C=C/C(=O)OCc4c(C)cc(C)cc4C)OC3C1O2 (stereo not drawn) [compound 11]
Proteus vulgaris OX-19
  MIC: 6.25 µg/mL (≈ 19.2 µM)
[1]
  MIC: 1.56 µg/mL (≈ 4.79 µM)
[2]
  MIC: 12.5 µg/mL (≈ 38.4 µM)
[3]
  MIC: > 100 µg/mL
[4]
  MIC: 12.5 µg/mL (≈ 38.4 µM)
[5]
  MIC: 12.5 µg/mL (≈ 38.4 µM)
[6]
  MIC: 3.13 µg/mL (≈ 9.62 µM)
[7]
  MIC: 6.25 µg/mL (≈ 19.2 µM)
Proteus vulgaris HX-19
  MIC: 3.13 µg/mL (≈ 9.62 µM)
[8]
  MIC: 3.13 µg/mL (≈ 9.62 µM)
[9]
  MIC: 6.25 µg/mL (≈ 19.2 µM)
[10]
  MIC: 12.5 µg/mL (≈ 38.4 µM)
[11]
  MIC: 12.5 µg/mL (≈ 38.4 µM)
[12]
  MIC: 0.78 µg/mL (≈ 2.4 µM)
[13]
  MIC: 12.5 µg/mL (≈ 38.4 µM)
[14]
  MIC: 3.13 µg/mL (≈ 9.62 µM)
[15]
  MIC: 6.25 µg/mL (≈ 19.2 µM)
[16]
  MIC: > 100 µg/mL
Salmonella typhi 901
  MIC: 6.25 µg/mL (≈ 19.2 µM)
[17]
  MIC: < 0.1 µg/mL
[18]
  MIC: < 0.2 µg/mL
[19]
  MIC: 3.13 µg/mL (≈ 9.62 µM)
[20]
  MIC: 25 µg/mL (≈ 76.8 µM)
[21]
  MIC: 25 µg/mL (≈ 76.8 µM)
Enterobacter cloacae 963
  MIC: > 100 µg/mL
[22]
  MIC: 12.5 µg/mL (≈ 38.4 µM)
[23]
  MIC: 3.13 µg/mL (≈ 9.62 µM)
[24]
  MIC: > 100 µg/mL
[25]
  MIC: 6.25 µg/mL (≈ 19.2 µM)
[26]
  MIC: > 100 µg/mL

## [C-]#[N+]C12CC3(/C=C/C(=O)Nc4cccc(C(F)(F)F)c4)OC3C1O2 (stereo not drawn) [compound 47]
Proteus vulgaris OX-19
  MIC: < 0.05 µg/mL
[1]
  MIC: 1.56 µg/mL (≈ 4.64 µM)
[2]
  MIC: 50 µg/mL (≈ 149 µM)
[3]
  MIC: > 200 µg/mL
[4]
  MIC: 0.1 µg/mL (≈ 0.297 µM)
[5]
  MIC: 3.13 µg/mL (≈ 9.31 µM)
[6]
  MIC: 0.39 µg/mL (≈ 1.16 µM)
[7]
  MIC: < 0.05 µg/mL
Proteus vulgaris HX-19
  MIC: < 0.05 µg/mL
[8]
  MIC: 200 µg/mL (≈ 595 µM)
[9]
  MIC: 0.2 µg/mL (≈ 0.595 µM)
[10]
  MIC: 3.13 µg/mL (≈ 9.31 µM)
[11]
  MIC: 3.13 µg/mL (≈ 9.31 µM)
[12]
  MIC: 0.78 µg/mL (≈ 2.32 µM)
[13]
  MIC: > 200 µg/mL
[14]
  MIC: < 0.05 µg/mL
[15]
  MIC: 3.13 µg/mL (≈ 9.31 µM)
[16]
  MIC: > 200 µg/mL
Salmonella typhi 901
  MIC: 3.13 µg/mL (≈ 9.31 µM)
[17]
  MIC: 0.78 µg/mL (≈ 2.32 µM)
[18]
  MIC: < 0.2 µg/mL
[19]
  MIC: < 0.05 µg/mL
[20]
  MIC: 200 µg/mL (≈ 595 µM)
[21]
  MIC: 200 µg/mL (≈ 595 µM)
Enterobacter cloacae 963
  MIC: > 200 µg/mL
[22]
  MIC: 25 µg/mL (≈ 74.3 µM)
[23]
  MIC: < 0.05 µg/mL
[24]
  MIC: > 200 µg/mL
[25]
  MIC: 3.13 µg/mL (≈ 9.31 µM)
[26]
  MIC: > 200 µg/mL

## [C-]#[N+]C12CC3(/C=C/C(=O)Nc4cc(C(=O)OC)ccc4OC)OC3C1O2 (stereo not drawn) [compound 77]
Proteus vulgaris OX-19
  MIC: > 200 µg/mL
[1]
  MIC: > 200 µg/mL
[2]
  MIC: 200 µg/mL (≈ 561 µM)
[3]
  MIC: > 200 µg/mL
[4]
  MIC: > 200 µg/mL
[5]
  MIC: > 200 µg/mL
[6]
  MIC: 6.25 µg/mL (≈ 17.5 µM)
[7]
  MIC: 100 µg/mL (≈ 281 µM)
Proteus vulgaris HX-19
  MIC: 100 µg/mL (≈ 281 µM)
[8]
  MIC: > 200 µg/mL
[9]
  MIC: > 200 µg/mL
[10]
  MIC: > 200 µg/mL
[11]
  MIC: > 200 µg/mL
[12]
  MIC: 100 µg/mL (≈ 281 µM)
[13]
  MIC: > 200 µg/mL
[14]
  MIC: > 200 µg/mL
[15]
  MIC: > 200 µg/mL
[16]
  MIC: > 200 µg/mL
Salmonella typhi 901
  MIC: > 200 µg/mL
[17]
  MIC: 50 µg/mL (≈ 140 µM)
[18]
  MIC: 3.13 µg/mL
[19]
  MIC: 200 µg/mL (≈ 561 µM)
[20]
  MIC: > 200 µg/mL
[21]
  MIC: > 200 µg/mL
Enterobacter cloacae 963
  MIC: > 200 µg/mL
[22]
  MIC: > 200 µg/mL
[23]
  MIC: > 200 µg/mL
[24]
  MIC: > 200 µg/mL
[25]
  MIC: 200 µg/mL (≈ 561 µM)
[26]
  MIC: > 200 µg/mL
